US7101719B2, “Support and method for cell based assays” (GE Healthcare Limited, priority 2000, dated 2006)

Experiments:
Format in all cases: cell-based
[1] = tested on: CHO cells; assay: Uptake of radiolabelled methionine into CHO cells cultured on CYTODEX/YOx Microcarriers (Example 2); details: cycloheximide 10 μM final concentration; CCD imaging; FIG. 1
Method: CYTODEX™ and CYTODEX™/YOx Microcarrier beads were dispensed into sterile universal containers. Beads were collected by centrifugation at 100 rpm for one minute. Supernatants were removed and replaced with complete Ham's F12 nutrient mix containing 10% (v\v) FCS. Beads were incubated with rolling at 37° C. for 30 minutes. Beads were harvested by centrifugation at 100 rpm for 1 minute. Spent medium was removed and replaced with 10^7 cells in 500 μl or less. Beads plus cells were incubated at 37° C. for 20 minutes to permit cell attachment to beads. Fresh Ham's F12 medium was added to a final volume of 4 ml containing 5 mg/ml beads for [^35S] and 10 mg/ml for [^14C] or [^3H]. Beads were left to roll overnight at 37° C. Following overnight incubation, beads/cells were harvested by centrifugation at 100 rpm for 1 minute. Supernatant containing unattached cells was removed. Microcarrier beads were washed with PBS (×1) and resuspended in methionine deficient DMEM supplemented with radiolabelled methionine. Cultures were returned to 37° C. with rolling. [^3H]Methionine and [^14C] or [^35S]methionine were included at final concentrations of 8 μCi/ml and 4 μCi/ml respectively. […]

[2] = tested on: CHO cells; assay: Parallel assay of incorporation of [35S]methionine into CHO cells on CYTODEX/YOx Microcarriers (Example 3); details: cycloheximide 10 μM, without inhibitor 1700 IODs, 'no cell' controls 650 IODs, FIG. 4
Method: (§1) 40 mg of YOx-loaded CYTODEX™ Microcarrier beads were dispensed into suitable sterile containers and allowed to settle. The supernatant was removed from each microcarrier pellet and the beads resuspended in 5 ml of either complete Ham's F12 nutrient mix (Sigma N-4888) or DMEM (Sigma D-6546), both containing 10% FCS, 2 mM L-glutamine and 50 μg/ml streptamycin/50 IU/ml penicillin. The microcarriers were incubated at 37° C. for thirty minutes without rolling.
(§2) 10×10^6 CHO or HeLa cells in 5 ml complete medium were added to separate microcarrier preparations and the cultures incubated at 37° C. for thirty minutes without rolling. After the initial incubation cultures were incubated overnight at 37° C. with rolling. Following the overnight incubation, unattached cells were removed and the beads resuspended in 10 ml complete culture medium. Microcarriers/cells were maintained in culture until the cell density had reached a sufficient level. Culture medium was replaced every two days.
(§3) Cycloheximide was prepared as a 1 mM stock in phosphate buffered saline and added to the cultures at a final concentration of 10 μM. […]
(§4) Each microcarrier preparation was allowed to settle and the growth medium removed. […] Plates were read on the LEADseeker™ Imaging System with a 5 minute exposure time to detect cellular associated methionine.

[3] = tested on: HeLa cells; assay: Parallel assay of incorporation of [35S]methionine into HeLa cells on CYTODEX/YOx Microcarriers (Example 3); details: cycloheximide 10 μM, without inhibitor 900 IODs, 'no cell' controls 650 IODs, FIG. 4
Method: as §1, §2, §3, §4

C[C@@H]1C[C@@H]([C@H](O)CC2CC(=O)NC(=O)C2)C(=O)[C@@H](C)C1 [cycloheximide] was tested, and the “uptake of [35S]methionine into CHO cells” value [1] was “inhibited”, the “signal of [35S]methionine incorporation in the presence of protein synthesis inhibitor” value [2] was 650 IODs and the “signal of [35S]methionine incorporation in the presence of protein synthesis inhibitor” value [3] was 600 IODs.
